Data as given in ChEMBL document CHEMBL4219059, “Synthesis and biological evaluation of cyclopeptide GG-8-6 and its analogues as anti-hepatocellular carcinoma agents” (Bioorg Med Chem, 2018).
Activity calls are given as the source filed them. The rule behind the calls is not given here. Peptide text beside a SMILES is read from it.

Key:
[1] = test system: SMMC-7721; assay: Antiproliferative activity against human SMMC7721 cells after 24 hrs by MTT assay; assay type: functional, cell-based; settings: SMMC-7721, 24 h
[2] = test system: HepG2; assay: Antiproliferative activity against human HepG2 cells after 24 hrs by MTT assay; assay type: functional, cell-based; settings: HepG2, 24 h
[3] = test system: SMMC-7721; assay: Antitumor activity against human SMMC7721 cells xenografted in Balb/c nude mouse assessed as tumor growth inhibition at 8 mg/kg, ip for 32 days relative to control; assay type: functional; settings: SMMC-7721, ip, 768 h, read-out: TGI
[4] = test system: SMMC-7721; assay: Induction of apoptosis in human SMMC7721 cells assessed as late apoptotic cells at 20 uM after 24 hrs by Annexin V-FITC/propidium iodide staining based flow cytometry (reference value: 0.7%); assay type: functional
[5] = test system: SMMC-7721; assay: Induction of apoptosis in human SMMC7721 cells assessed as early apoptotic cells at 10 uM after 24 hrs by Annexin V-FITC/propidium iodide staining based flow cytometry (reference value: 2%); assay type: functional
[6] = test system: SMMC-7721; assay: Induction of apoptosis in human SMMC7721 cells assessed as late apoptotic cells at 10 uM after 24 hrs by Annexin V-FITC/propidium iodide staining based flow cytometry (reference value: 0.7%); assay type: functional
[7] = test system: SMMC-7721; assay: Induction of apoptosis in human SMMC7721 cells assessed as early apoptotic cells at 30 uM after 24 hrs by Annexin V-FITC/propidium iodide staining based flow cytometry (reference value: 2%); assay type: functional
[8] = test system: SMMC-7721; assay: Cell cycle arrest in human SMMC7721 cells assessed as G2/M phase accumulation at 10 uM after 24 hrs by propidium iodide staining based flow cytometry relative to control; assay type: functional
[9] = test system: SMMC-7721; assay: In vivo induction of apoptosis in human SMMC7721 cells xenografted in Balb/c nude mouse assessed as activation of caspase-3 dosed intraperitoneally for 32 days by IHC analysis; assay type: functional, organism-based
[10] = test system: SMMC-7721; assay: Antitumor activity against human SMMC7721 cells xenografted in Balb/c nude mouse assessed as tumor growth inhibition at 40 mg/kg, ip for 32 days relative to control; assay type: functional; settings: SMMC-7721, ip, 768 h, read-out: TGI
[11] = test system: SMMC-7721; assay: Cell cycle arrest in human SMMC7721 cells assessed as G2/M phase accumulation at 20 uM after 24 hrs by propidium iodide staining based flow cytometry relative to control; assay type: functional
[12] = test system: SMMC-7721; assay: Induction of morphological changes in tumor of human SMMC7721 cells xenografted Balb/c nude mouse assessed as appearance of shrunken nuclei at 40 mg/kg, ip for 32 days by hematoxylin/eosin staining based microscopic analysis; assay type: functional, organism-based
[13] = test system: SMMC-7721; assay: Induction of apoptosis in human SMMC7721 cells assessed as increase in cleaved caspase-3 protein expression after 24 hrs by Western blot method; assay type: functional, cell-based
[14] = test system: SMMC-7721; assay: Induction of apoptosis in human SMMC7721 cells assessed as increase in cleaved PARP protein expression after 24 hrs by Western blot method; assay type: functional, cell-based
[15] = test system: SMMC-7721; assay: Induction of apoptosis in human SMMC7721 cells assessed as early apoptotic cells at 20 uM after 24 hrs by Annexin V-FITC/propidium iodide staining based flow cytometry (reference value: 2%); assay type: functional
[16] = test system: Mus musculus; assay: Toxicity in Balb/c nude mouse xenografted with human SMMC7721 cells assessed as body weight level at 8 mg/kg, ip for 32 days (reference value: 25.4 +/- 1.8 g); assay type: organism-based; settings: in vivo, 768 h
[17] = test system: SMMC-7721; assay: In vivo induction of apoptosis in human SMMC7721 cells xenografted in Balb/c nude mouse at 8 to 40 mg/kg, ip for 32 days by TUNEL assay; assay type: functional, organism-based
[18] = test system: SMMC-7721; assay: Induction of apoptosis in human SMMC7721 cells assessed as late apoptotic cells at 30 uM after 24 hrs by Annexin V-FITC/propidium iodide staining based flow cytometry (reference value: 0.7%); assay type: functional
[19] = test system: Mus musculus; assay: Toxicity in Balb/c nude mouse xenografted with human SMMC7721 cells assessed as body weight level at 40 mg/kg, ip for 32 days (reference value: 25.4 +/- 1.8 g); assay type: organism-based; settings: in vivo, 768 h
[20] = test system: SMMC-7721; assay: Induction of apoptosis in human SMMC7721 cells assessed as increase in cleaved caspase-8 protein expression after 24 hrs by Western blot method; assay type: functional, cell-based
[21] = test system: SMMC-7721; assay: Induction of morphological changes in tumor of human SMMC7721 cells xenografted Balb/c nude mouse assessed as reduction in number of nuclei at 40 mg/kg, ip for 32 days by hematoxylin/eosin staining based microscopic analysis; assay type: functional, organism-based
[22] = test system: SMMC-7721; assay: Induction of apoptosis in human SMMC7721 cells assessed as increase in cleaved caspase-9 protein expression after 24 hrs by Western blot method; assay type: functional, cell-based
[23] = test system: SMMC-7721; assay: Induction of morphological changes in tumor of human SMMC7721 cells xenografted Balb/c nude mouse induction of nuclei and cytoplasm non-uniform distribution at 40 mg/kg, ip for 32 days by hematoxylin/eosin staining based microscopic analysis; assay type: functional, organism-based
[24] = test system: SMMC-7721; assay: Cell cycle arrest in human SMMC7721 cells assessed as G2/M phase accumulation at 30 uM after 24 hrs by propidium iodide staining based flow cytometry relative to control; assay type: functional
[25] = test system: Mus musculus; assay: Toxicity in Balb/c nude mouse xenografted with human SMMC7721 cells assessed as body weight level at 16 mg/kg, ip for 32 days (reference value: 25.4 +/- 1.8 g); assay type: organism-based; settings: in vivo, 768 h
[26] = test system: SMMC-7721; assay: Induction of apoptosis in human SMMC7721 cells assessed as chromatin condensation at 10 to 30 uM after 24 hrs by DAPI staining based laser confocal microscopy; assay type: functional, cell-based
[27] = test system: SMMC-7721; assay: Antitumor activity against human SMMC7721 cells xenografted in Balb/c nude mouse assessed as tumor growth inhibition at 16 mg/kg, ip for 32 days relative to control; assay type: functional; settings: SMMC-7721, ip, 768 h, read-out: TGI
[28] = test system: SMMC-7721; assay: Antitumor activity against human SMMC7721 cells xenografted in Balb/c nude mouse assessed as tumor growth inhibition dosed intraperitoneally for 32 days; assay type: functional, organism-based
[29] = test system: SMMC-7721; assay: Cell cycle arrest in human SMMC7721 cells assessed as G2/M phase accumulation at 2.5 uM after 24 hrs by propidium iodide staining based flow cytometry relative to control; assay type: functional
[30] = test system: SMMC-7721; assay: Induction of apoptosis in human SMMC7721 cells assessed as late apoptotic cells at 0.2 uM after 24 hrs by Annexin V-FITC/propidium iodide staining based flow cytometry (reference value: 0.7%); assay type: functional
[31] = test system: SMMC-7721; assay: Induction of apoptosis in human SMMC7721 cells assessed as early apoptotic cells at 0.2 uM after 24 hrs by Annexin V-FITC/propidium iodide staining based flow cytometry (reference value: 2%); assay type: functional
[32] = test system: SMMC-7721; assay: Induction of apoptosis in human SMMC7721 cells assessed as chromatin condensation at 0.2 uM after 24 hrs by DAPI staining based laser confocal microscopy; assay type: functional, cell-based

Compound: CC(C)C[C@@H]1NC(=O)[C@H](C)NC(=O)[C@@H]2CCCN2C(=O)[C@H](CC(C)C)NC(=O)[C@H](C(C)C)NC(=O)[C@H](CC(C)C)NC(=O)[C@H](C(C)C)NC(=O)[C@H](CC(C)C)NC(=O)[C@H](CC(C)C)NC1=O (cyclo(ALLLVLVLP))
- IC50 [1]: 36.1 µM
- IC50 [2]: 55.6 µM

Compound: CC[C@H](C)[C@@H]1NC(=O)[C@@H]2CCCN2C(=O)[C@H](CC(C)C)NC(=O)[C@H](C(C)C)NC(=O)[C@H](CC(C)C)NC(=O)[C@H](C(C)C)NC(=O)[C@H](CC(C)C)NC(=O)[C@H](CC(C)C)NC(=O)[C@H](C)NC1=O (cyclo(ALLVLVLPI))
- IC50 [1]: 29.8 µM
- IC50 [2]: > 100 µM

Compound: CC[C@H](C)[C@@H]1NC(=O)[C@@H]2CCCN2C(=O)[C@H](CC(C)C)NC(=O)[C@H](C)NC(=O)[C@H](CC(C)C)NC(=O)[C@H](C(C)C)NC(=O)[C@H](CC(C)C)NC(=O)[C@H](CC(C)C)NC(=O)[C@H](CC(C)C)NC1=O (cyclo(ALPILLLVL))
- IC50 [1]: 29.9 µM
- IC50 [2]: 29.9 µM

Compound: CC[C@H](C)[C@@H]1NC(=O)[C@@H]2CCCN2C(=O)[C@H](CC(C)C)NC(=O)[C@H](C(C)C)NC(=O)[C@H](CC(C)C)NC(=O)[C@H](C)NC(=O)[C@H](CC(C)C)NC(=O)[C@H](CC(C)C)NC(=O)[C@H](CC(C)C)NC1=O (cyclo(ALVLPILLL))
- IC50 [1]: 47.4 µM
- IC50 [2]: 40.5 µM

Compound: CC[C@H](C)[C@@H]1NC(=O)[C@@H]2CCCN2C(=O)[C@H](CC(C)C)NC(=O)[C@H](C(C)C)NC(=O)[C@H](CC(C)C)NC(=O)[C@H](C(C)C)NC(=O)[C@H](CC(C)C)NC(=O)[C@H](C)NC(=O)[C@H](CC(C)C)NC1=O (cyclo(ALVLVLPIL))
- IC50 [1]: 42.8 µM
- IC50 [2]: > 100 µM

Compound: CC[C@H](C)[C@@H]1NC(=O)[C@@H]2CCCN2C(=O)[C@H](C)NC(=O)[C@H](C(C)C)NC(=O)[C@H](CC(C)C)NC(=O)[C@H](C(C)C)NC(=O)[C@H](CC(C)C)NC(=O)[C@H](CC(C)C)NC(=O)[C@H](CC(C)C)NC1=O (cyclo(APILLLVLV))
- IC50 [1]: 48.5 µM
- IC50 [2]: 39.4 µM

Compound: CC[C@H](C)[C@@H]1NC(=O)[C@@H]2CCCN2C(=O)[C@H](CC(C)C)NC(=O)[C@H](C(C)C)NC(=O)[C@H](C)NC(=O)[C@H](C(C)C)NC(=O)[C@H](CC(C)C)NC(=O)[C@H](CC(C)C)NC(=O)[C@H](CC(C)C)NC1=O (cyclo(AVLPILLLV))
- IC50 [1]: 38.9 µM
- IC50 [2]: 38.6 µM

Compound: CC[C@H](C)[C@@H]1NC(=O)[C@@H]2CCCN2C(=O)[C@H](CC(C)C)NC(=O)[C@H](C(C)C)NC(=O)[C@H](CC(C)C)NC(=O)[C@H](C(C)C)NC(=O)[C@H](C)NC(=O)[C@H](CC(C)C)NC(=O)[C@H](CC(C)C)NC1=O (cyclo(AVLVLPILL))
- IC50 [1]: 56.1 µM
- IC50 [2]: 31.8 µM

Compound: CC[C@H](C)[C@@H]1NC(=O)[C@@H]2CCCN2C(=O)[C@H](CC(C)C)NC(=O)[C@H](C(C)C)NC(=O)[C@H](CC(C)C)NC(=O)[C@H](C(C)C)NC(=O)[C@H](CC(C)C)NC(=O)[C@H](CC(C)C)NC(=O)[C@H](CC(C)C)NC1=O (cyclo(ILLLVLVLP))
- inhibition in vivo at 8 mg/kg [3]: 26.1%
- Activity [4]: 2.8%
- Activity [5]: 1.6 - 3.6%
- Activity [6]: 0.4%
- Activity [7]: 84.5 - 86.5%
- Activity [8]: 5.9%
- Activity [9]: Dose-dependent effect
- inhibition in vivo at 40 mg/kg [10]: 67.9%
- Activity [11]: 9.6%
- Activity [12]: Active
- Activity [13]: Dose-dependent effect
- Activity [14]: Dose-dependent effect
- Activity [15]: 36.6 - 38.6%
- Activity [16]: 22.2 g
- Activity [17]: Dose-dependent effect
- Activity [18]: 2.6%
- Activity [19]: 21.1 g
- Activity [20]: Dose-dependent effect
- IC50 [1]: 6.38 µM
- Activity [21]: Active
- Activity [22]: Dose-dependent effect
- Activity [23]: Active
- Activity [24]: 12%
- Activity [25]: 22.7 g
- Activity [26]: Active
- IC50 [2]: 12.2 µM
- inhibition in vivo at 16 mg/kg [27]: 57%
- TGI [28]: Dose-dependent effect

Compound: CC[C@H](C)[C@@H]1NC(=O)[C@@H]2CCCN2C(=O)[C@H](CC(C)C)NC(=O)[C@H](C(C)C)NC(=O)[C@H](CC(C)C)NC(=O)[C@H](C(C)C)NC(=O)[C@H](CC(C)C)NC(=O)[C@H](CC(C)C)NC1=O (cyclo(ILLVLVLP))
- IC50 [1]: 73.9 µM
- IC50 [2]: 51.7 µM

Compound: CC[C@H](C)[C@@H]1NC(=O)[C@@H]2CCCN2C(=O)[C@H](CC(C)C)NC(=O)[C@H](C(C)C)NC(=O)[C@H](CC(C)C)NC(=O)[C@H](C(C)C)NC(=O)[C@H](CC(C)C)NC1=O (cyclo(ILVLVLP))
- IC50 [1]: > 100 µM
- IC50 [2]: > 100 µM

Compound: CC[C@H](C)[C@@H]1NC(=O)[C@@H]2CCCN2C(=O)[C@H](C(C)C)NC(=O)[C@H](CC(C)C)NC(=O)[C@H](C(C)C)NC1=O (cyclo(IVLVP))
- IC50 [1]: > 100 µM
- IC50 [2]: > 100 µM

Compound: COc1cc([C@@H]2c3cc4c(cc3[C@@H](O[C@@H]3O[C@@H]5CO[C@@H](C)O[C@H]5[C@H](O)[C@H]3O)[C@H]3COC(=O)[C@H]23)OCO4)cc(OC)c1O [ETOPOSIDE]
- Activity [29]: 44.9%

Compound: CC(=O)O[C@H]1C(=O)[C@@]2(C)[C@H]([C@H](OC(=O)c3ccccc3)[C@]3(O)C[C@H](OC(=O)[C@H](O)[C@@H](NC(=O)c4ccccc4)c4ccccc4)C(C)=C1C3(C)C)[C@]1(OC(C)=O)CO[C@@H]1C[C@@H]2O [PACLITAXEL]
- Activity [30]: 3.4%
- Activity [31]: 54.7 - 56.7%
- Activity [32]: Active
